Measured values from patent US20040152708A1, “Trans-9,10-dehydroepothilone C and D, analogs thereof and methods of making the same” (priority 2002, published 2004).
pIC50: −log10 of the molar value. In brackets after ≈: the same amount, converted by molar mass.

Key:
[1] = test system: Human breast carcinoma cell line MCF-7; experiment: SRB cytotoxicity assay, MCF-7; type: cell-based; settings: Homo sapiens, MCF7, 72 h; Table 1; 3 days, SRB; read-out: IC50 MCF-7
Description: (§1) Compounds of the invention may be screened for cytotoxicity using conventional assays well known to those skilled in the art. For example, cytotoxicity of the compounds may be determined by the SRB assay as disclosed in Skehan et al., J. Natl. Cancer Inst. 82:1107-1112 (1990), which is incorporated herein by reference. In the SRB assay, the following cultured cells are trypsinized, counted and diluted to the following concentrations per 100 μl with growth medium: MCF-7, 5000; NCI/ADR-Res, 7500; NCI-H460, 5000; A549, 5000; Skov3, 7500; and SF-268, 7500. The cells are seeded at 100 μl/well in 96-well microtiter plates. Twenty-four hours later, 100 μl of a test epothilone compound of the invention (ranging in concentration from 1000 nM to 0.001 nM diluted in growth medium) is added to each well. After incubation, with the compound for a period of days, the cells are fixed with 100 μl of 10% trichloroacetic acid (“TCA”) at 4 degrees for 1 hour, and stained with 0.2% sulforhodamine B (SRB)/1% acetic acid, and the bound SRB is then extracted with 200 μl of 10 mM Tris base. The amount of bound dye is determined by OD 515 nm, which correlates to the total cellular protein contents. The data is analyzed using standard statistical methodologies (such as those available with the software sold as KALEIDA GRAPH® by Synergy Software of Reading, Pa.) and the IC50s are calculated.
(§2) Human breast carcinoma cell line MCF-7, multi-drug resistant breast carcinoma cell line NCI/ADR, were obtained from the National Cancer Institute. Human non-small cell lung cancer cell line A549 and human ovarian cancer cell line SKOV-3 were obtained from American Type Culture Collection (Manassas, Va.). All cell lines were maintained in RPMI-1640 medium (Gibco/BRL, Rockville, Md.) supplemented with 2 mM L-glutamine, 25 mM HEPES and 10% FBS (Hyclone, Logan, Utah). Cells were maintained in a humidified incubator at 37° C. in 5% CO2.
(§3) Tumor cells were seeded in 100 μl at 5000 (MCF-7), 7500 (NCI/ADR), 5000 (A549) and 7500 (SKOV3) cells per well in 96-well plates. Cells were allowed to adhere for 24 hours. Each compound ranging from 0.001 to 1000 nM in 100 μl was added to cells in duplicate wells. After 3 days, cells were fixed at 4° C. for 1 hour with 10% trichloroacetic acid and then stained with 0.2% sulforhodamine B (SRB)/1% acetic acid for 20 minutes at room temperature. The unbound dye was rinsed away with 1% acetic acid, and the bounded SRB was then extracted with 200 μl of 10 mM Tris base. The absorbance was measured at 515 nm using a 96-well microtiter plate reader (Spectra Max 250, Molecular Devices). The IC50 values were calculated using a KaleidaGraph program. The experiments were performed twice.

[2] = test system: Human non-small cell lung cancer cell line A549; experiment: SRB cytotoxicity assay, A549; type: cell-based; settings: Homo sapiens, A549, 72 h; Table 1; 3 days, SRB; read-out: IC50 A549
Description: as §1, §2, §3

[3] = test system: human ovarian cancer cell line SKOV-3; experiment: SRB cytotoxicity assay, SKOV3; type: cell-based; settings: Homo sapiens, SK-OV-3, 72 h; Table 1; 3 days, SRB; read-out: IC50 SKOV3
Description: as §1, §2, §3

CYP2C19 = biological target: T1, CYP2C19 (Homo sapiens, UniProt P33261); experiment: Cytochrome P450 inhibition, CYP2C19; type: in vitro ADME; settings: human
T1 construct: purchased BD GenTest, Woburn, Mass
T1 sequence (P33261 whole entry): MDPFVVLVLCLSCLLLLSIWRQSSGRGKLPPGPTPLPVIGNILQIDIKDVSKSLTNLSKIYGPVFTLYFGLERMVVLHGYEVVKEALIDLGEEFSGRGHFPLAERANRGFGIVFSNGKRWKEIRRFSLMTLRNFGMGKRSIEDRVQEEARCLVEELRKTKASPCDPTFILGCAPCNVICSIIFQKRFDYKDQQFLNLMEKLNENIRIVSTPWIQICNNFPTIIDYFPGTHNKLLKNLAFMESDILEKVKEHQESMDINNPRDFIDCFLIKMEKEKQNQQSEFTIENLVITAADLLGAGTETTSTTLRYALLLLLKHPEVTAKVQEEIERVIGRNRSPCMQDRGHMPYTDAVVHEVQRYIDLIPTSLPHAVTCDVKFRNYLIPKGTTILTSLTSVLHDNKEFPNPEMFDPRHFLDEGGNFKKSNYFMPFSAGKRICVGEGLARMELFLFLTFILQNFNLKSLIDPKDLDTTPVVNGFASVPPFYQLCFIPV

[4] = Half-life in human plasma; settings: fresh human plasma
Description: (§4) Half-lives of compounds in fresh mouse and human plasma were determined by dissolving the compounds in DMSO and adding aliquots to samples of mouse or human plasma. At Time Zero, aliquotted 75 μl from each sample and added 150 μl of acetonitrile. Centrifuged the white precipitate at 13500 rpm for 3 minutes. Transferred all the clear supernatant into another microcentrifuge tube and repeated the centrifuging step (13500 rpm/3 min). Carefully pipetted 150 μl of the clear supernatant into labeled HPLC sample tubes and tried to avoid pipetting any protein pellets. The samples were analyzed by HPLC to measure remaining compound at each time point by comparison with authentic standards.

CYP3A4 = biological target: T2, CYP3A4 (Homo sapiens, UniProt P08684); experiment: Cytochrome P450 inhibition (BD GenTest kit, BFC substrate), CYP3A4; type: in vitro ADME
T2 construct: purchased BD GenTest, Woburn, Mass
T2 sequence (P08684 whole entry): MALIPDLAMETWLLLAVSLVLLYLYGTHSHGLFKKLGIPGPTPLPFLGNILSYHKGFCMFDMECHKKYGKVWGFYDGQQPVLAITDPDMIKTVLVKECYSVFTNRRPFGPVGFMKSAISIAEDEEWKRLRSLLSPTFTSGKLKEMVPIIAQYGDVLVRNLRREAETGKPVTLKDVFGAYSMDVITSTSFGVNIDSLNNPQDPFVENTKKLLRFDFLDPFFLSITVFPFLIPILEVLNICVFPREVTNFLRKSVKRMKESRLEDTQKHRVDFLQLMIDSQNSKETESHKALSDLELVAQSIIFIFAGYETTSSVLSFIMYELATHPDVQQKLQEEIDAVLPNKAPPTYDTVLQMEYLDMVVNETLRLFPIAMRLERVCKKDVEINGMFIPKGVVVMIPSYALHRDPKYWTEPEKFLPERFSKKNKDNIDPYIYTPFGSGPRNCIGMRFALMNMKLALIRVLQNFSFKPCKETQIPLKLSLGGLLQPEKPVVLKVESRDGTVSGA
Description: Following the procedure of Examples 39 (when R=methyl) and 42 (when R=CF3), the additional compounds shown in Table 2 were made by replacing (2-(tert-butyldimethyl-silyloxy)-methylthiazol-4-yl)methyltri-n-butyl-phosphonium chloride with the corresponding phosphonium chloride. Cytotoxicity data (Table 2) was obtained as described in Example 48. Cytochrome P450 inhibition data (Table 3) was obtained using the initial rate method against BFC substrate.
Cytochrome P450 inhibition measurements were performed using a commercially-available kit (BD GenTest, Woburn, Mass.), using BFC as substrate against CYP3A4.

[5] = Half-life in mouse plasma; settings: fresh mouse plasma
Description: as §4, with “Half-lives of compounds in fresh mouse and human plasma were determined by dissolving the compounds in DMSO and adding aliquots to samples of mouse or human plasma.” left out

[6] = test system: multi-drug resistant breast carcinoma cell line NCI/ADR; experiment: SRB cytotoxicity assay, NCI/ADR; type: cell-based, human; settings: Homo sapiens, NCI/ADR-RES, 72 h; Table 1; 3 days, SRB; read-out: IC50 NCI/ADR
Description: as §1, §2, §3

CYP2C9 = biological target: T3, CYP2C9 (Homo sapiens, UniProt P11712); experiment: Cytochrome P450 inhibition, CYP2C9; type: in vitro ADME; settings: human
T3 construct: purchased BD GenTest, Woburn, Mass
T3 sequence (P11712 whole entry): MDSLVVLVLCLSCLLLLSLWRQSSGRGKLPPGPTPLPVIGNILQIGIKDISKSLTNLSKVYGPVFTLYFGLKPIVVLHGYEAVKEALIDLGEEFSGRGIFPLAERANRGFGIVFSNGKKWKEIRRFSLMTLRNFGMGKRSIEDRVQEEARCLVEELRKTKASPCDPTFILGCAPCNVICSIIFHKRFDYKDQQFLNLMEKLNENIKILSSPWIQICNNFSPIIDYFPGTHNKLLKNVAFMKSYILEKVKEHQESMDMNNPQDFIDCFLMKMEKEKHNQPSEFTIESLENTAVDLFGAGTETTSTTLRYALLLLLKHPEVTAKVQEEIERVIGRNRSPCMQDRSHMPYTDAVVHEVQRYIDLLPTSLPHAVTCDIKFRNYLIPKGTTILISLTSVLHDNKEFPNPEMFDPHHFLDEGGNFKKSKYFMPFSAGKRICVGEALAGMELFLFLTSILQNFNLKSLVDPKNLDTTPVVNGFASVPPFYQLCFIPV

[7] = Compound solubility in phosphate-buffered saline; type: physicochemical; settings: aqueous buffer, kinetic from dmso stock; 5 μL of 20 mg/mL DMSO stock in 95 μL phosphate-buffered saline, 0.45 micron filter, HPLC
Description: Compound solubility was determined as follows: 5 μL of stock solution (at 20 mg/mL in DMSO) was added to 95 μL of phosphate-buffered saline. After being vortexed for about 10 seconds, the solution/suspension was filtered through a 0.45 micron filter and the amount of analyte was quantitated by HPLC. Solubilities (mg/mL) determined were as follows: epothilone D, <0.06; trans-9,10-dehydroepothilone D, <0.06; 21-OH-26-F3-trans-9,10-dehydroepothilone D, 0.1; 21-amino-trans-9,10-dehydroepothilone D, >0.6; 21-amino-26-F3-trans-9,10-dehydroepothilone D, >0.6; 26-F3-trans-9,10-dehydroepothilone D, <0.06; 21-OH-trans-9,10-dehydroepothilone D, 0.1; KOSN 1635, <0.02; KOSN 1632, 0.12.

[8] = Plasma protein binding (ultrafiltration); type: in vitro ADME; settings: mouse or human plasma (species not given), 37° C.
Description: Plasma protein binding studies were performed as follows. Compounds were dissolved in DMSO, then diluted into either fresh or thawed samples of mouse or human plasma and incubated at 37° C. Time points of 50 μL were mixed with 100 μl of acetonitrile and centrifuged at ˜14000 rpm for 3 minutes. A 100 μL aliquot was removed from the supernatant and set aside for analysis to indicate compound in the total fraction. The remaining supernatant was transferred onto a Microcon ultrafiltration device fitted with a YM10 membrane and centrifuged to separate protein-bound material. A 50 μL aliquot of the protein-free filtrate was mixed with 100 μL of acetonitrile, centrifuged at ˜14000 rpm for 3 minutes, then 100 μL of the supernatant was collected and analyzed to determine the amount of compound not protein bound. The amount of compound in the total sample and in the protein-free fraction were determined by HPLC analysis against authentic standards.

SMILES	pIC50 [1]	pIC50 [2]	pIC50 [3]	pIC50 (CYP2C19)	half-life [4]	pIC50 (CYP3A4)	half-life [5]	pIC50 [6]	pIC50 (CYP2C9)	solubility [7]	percentage of compound protein bound [8]
C/C1=C/C[C@@H](/C(C)=C/c2csc(CO)n2)OC(=O)C[C@H](O)C(C)(C)C(=O)[C@H](C)[C@@H](O)[C@@H](C)/C=C/C1 [21-OH 9,10-dehydroepothilone D, 21-hydroxy-9,10-dehydro-epothilone D]	8.64	8.42	8.24	5.25	> 24 h	6.10	17.6 h	7.85	4.66	0.1 mg/mL (≈ 198 µM)	94.2%
C/C(=C\c1csc(CO)n1)[C@@H]1C/C=C(/C(F)(F)F)C/C=C/[C@H](C)[C@H](O)[C@@H](C)C(=O)C(C)(C)[C@@H](O)CC(=O)O1 [21-hydroxy-9,10-dehydro-26-trifluoroepothilone D]	8.44	8.21	8.10	4.69	> 24 h	6.00	6.32 h	7.19	4.76	0.1 mg/mL (≈ 179 µM)	92.8%
C/C1=C/C[C@@H](/C(C)=C/c2csc(C)n2)OC(=O)C[C@H](O)C(C)(C)C(=O)[C@H](C)[C@@H](O)[C@@H](C)CCC1 [Epothilone D, Desoxyepothilone B, reference compound]	8.17	7.60	7.41	5.47 to 5.80	> 24 h	5.62	0.817 h	7.64	4.92 to 5.05	< 0.06 mg/mL	98.5%
C/C1=C/C[C@@H](/C(C)=C/c2ccccn2)OC(=O)C[C@H](O)C(C)(C)C(=O)[C@H](C)[C@@H](O)[C@@H](C)/C=C/C1 [KOSN 1632, 17-des(2-methyl-4-thiazolyl)-17-(2-pyridyl)-9,10-dehydropeothilone D]	9.06	8.48	8.36	5.52	> 24 h	5.60	0.467 h	8.34	4.82	0.12 mg/mL (≈ 256 µM)	89.4%
C/C1=C/C[C@@H](/C(C)=C/c2nc3ccccc3s2)OC(=O)C[C@H](O)C(C)(C)C(=O)[C@H](C)[C@@H](O)[C@@H](C)/C=C/C1 [KOSN 1635, 17-des(2-methyl-4-thiazolyl)-17-(2-benzothiazolyl)-9,10-dehydropeothilone D]	8.96	8.38	8.47	5.49	> 24 h	5.51	0.967 h	8.25	5.39	< 0.02 mg/mL	99.7%
